Earlier results in patent US20110171124A1, “In situ methods for monitoring the EMT status of tumor cells in vivo” (OSI Pharmaceuticals, Inc., priority 2009, published 2011).

Tested on: NSCLC
Conditions: phase III, monotherapy, advanced treatment-refractory NSCLC patients

## C#Cc1cccc(Nc2ncnc3cc(OCCOC)c(OCCOC)cc23)c1 [erlotinib, [6,7-bis(2-methoxyethoxy)-4-quinazolin-4-yl]-(3-ethynylphenyl)amine]
  disease progression: delayed disease progression
  survival: significantly prolonged survival
  worsening of lung cancer-related symptoms: delayed worsening of lung cancer-related symptoms
